Experimental data taken from US20230416247A1, “DRUG-LIKE MOLECULES AND METHODS FOR THE THERAPEUTIC TARGETING OF MICRORNA-21” (University of Washington, priority 2020, published 2023).

Tested on: mature miR-21 in HeLa cells
Test: qRT-PCR of mature miR-21 in HeLa cells
Format: cell-based
Procedure: FIGS. 12A and 12B compare levels of mature miR-21 in HeLa cells, as measured by standard qRT-PCR after 5 days of incubation in the presence of palbociclib and compounds −0045 (sm1), −0050 (sm3) and −0052 (sm5) (FIG. 12A); and levels of mature miR-21 in HeLa cells were measured by qRT-PCR after 4 days of incubation in the presence of palbociclib (a control) and compounds −0045 (sm1), −0050 (sm3) and −0052 (sm5) (FIG. 12B), normalized to miR-21 levels in the absence of any compound. […] The two panels represent independent duplicates of the same experiment.
HeLa cells have relatively high levels of miR-21, and this cell line was used to evaluate whether addition of the molecules would decrease levels of mature miR-21, as expected for inhibition of miR-21 processing. […] In contrast, compounds −0045, −50 and −52, induce an approximately 20% percent decline in levels of mature miR-21 (FIGS. 12A and 12B; the comparison of FIG. 12A and FIG. 12B provides an indication in the uncertainty of the data). miR-21 is very long lived, with a lifetime of approximately 5 days. […] Similar results were obtained at higher numbers of cells/plate (200 k vs at the start of the experiment), but the experiment could not be extended beyond 2 days because of the very high cell density reached. The observed trends were nonetheless in agreement with the experiments conducted at lower cell density.

Compound | increase in levels of miR-21 (days 4 and 5 of incubation, 20 k vs 200 k cells/plate, normalized to no compound) | decline in levels of mature miR-21 (days 4 and 5 of incubation, normalized to no compound) | reduction of all newly synthesized miR-21 (worked out from the 20% decrease and miR-21 lifetime of approximately 5 days)
CC(=O)c1c(C)c2cnc(Nc3ccc(N4CCNCC4)cn3)nc2n(C2CCCC2)c1=O [Palbociclib, reference compound] | 10-20% |  | 
O=c1[nH]c(Nc2ccc(N3CCNCC3)cn2)nc2ccncc12 [−0050] |  | approximately 20% | about 60%
